Measurements from PubChem BioAssay (NCI).
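Tested at 5 concentrations; 48 h exposure; 96-well plates; endpoints linearly interpolated, else capped at highest concentration. The concentration for 50% growth inhibition is given as GI50. At the TGI there is no net growth.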

What was measured:
Test in all cases: DTP human tumour cell line panel, 48 h
[1] = system: HL-60(TB) leukemia
[2] = system: M14 melanoma
[3] = system: MALME-3M melanoma
[4] = system: NCI-H460 lung
[5] = system: OVCAR-3 ovarian
[6] = system: OVCAR-8 ovarian
[7] = system: RPMI-8226 leukemia
[8] = system: SN12C renal
[9] = system: TK-10 renal
[10] = system: A498 renal

Structure (SMILES) | GI50 [1] [µM] | TGI [1] [µM] | GI50 [2] [µM] | TGI [2] [µM] | GI50 [3] [µM] | TGI [3] [µM] | GI50 [4] [µM] | TGI [4] [µM] | GI50 [5] [µM] | TGI [5] [µM] | GI50 [6] [µM] | TGI [6] [µM] | GI50 [7] [µM] | TGI [7] [µM] | GI50 [8] [µM] | TGI [8] [µM] | GI50 [9] [µM] | TGI [9] [µM] | TGI [10] [µM] | GI50 [10] [µM]
CCOC(=O)c1cc(C(=O)c2cc(OC)cc(OC)c2)n2ncccc12 | 1.38 | 4.66 | 0.394 | > 100 | > 100 | > 100 | 2.58 | > 100 | 0.402 | > 100 | 3.77 | > 100 | 1.82 | > 100 | 4.16 | > 100 | 9.78 | > 100 |  | 
C=C(CO)CC(O)c1ccccc1 (stereo unspecified) |  | > 100 |  | > 100 |  |  |  | > 100 |  | > 100 |  | > 100 |  | > 100 |  | > 100 |  | > 100 | > 100 | 
Cc1ccnc2c1NC(=O)c1cccnc1N2C1CC1 | > 100 | > 100 | > 100 | > 100 |  |  | > 100 | > 100 | > 100 | > 100 | > 100 | > 100 | > 100 | > 100 | > 100 | > 100 | > 100 | > 100 | > 100 | > 100
COC(=O)/C(=C/N1CCN(C(=O)c2ccco2)C1=S)C(C)=O | 7.47 | 71.5 | 10.7 | 24.4 | 5.64 | 50.4 | 2.19 | 5.88 | 2.67 | 11.6 | 27.8 | 88.5 | 5.49 | > 100 | 5.93 | 22.4 | 3.54 | 14.9 |  | 
CC(C)OCN1COCN=C1NC#N |  | > 100 |  | > 100 |  | > 100 |  | > 100 |  | > 100 |  | > 100 |  |  |  | > 100 |  | > 100 | > 100 | 
Nc1ccc(-c2ccc(-c3nc4ccccc4[nH]3)cc2)cc1 |  |  | 0.0328 | > 100 | 7.19 | > 52.7 | 0.196 | > 65.1 | 1.2 | 40.1 | 14.1 | 97.5 | 3.34 | 39.9 | 19.6 | > 100 |  | > 100 | > 100 | 33.6
N/C(=N\C(=S)N1CCCCC1)N1CCCCC1 |  | > 100 |  | > 100 |  | > 100 |  | > 100 |  |  |  | > 100 |  | > 100 |  | > 100 |  | > 100 | > 100 | 
COc1cc(C2C(C(=O)O)=C(C)Oc3cc4c(cc32)OCO4)cc(OC)c1OC (stereo unspecified) |  | 50.8 |  | > 100 |  | > 100 |  | > 100 |  | 48.1 |  | > 100 |  |  |  | > 100 |  | > 100 |  | 
CCCCCN(CCCCC)C(=O)[C@@H](CCC(=O)OCc1ccccc1)NC(=O)c1cc2ccccc2[nH]1 |  |  |  | > 100 |  | > 100 |  | > 100 |  | > 100 |  | > 100 |  |  |  | > 100 |  |  | > 100 | 
O=C(N/N=C/c1cc2ccccc2c2ccccc12)c1cc(O)c(O)c(O)c1 | 3.54 | 15.2 | 4.34 | 18.2 | 2.27 | 7.19 | 3.8 | 18 |  |  | 3.72 | 15.6 | 7.47 | 46.1 | 4.99 | 30 | 4.48 | 30.7 | 27 | 13.3
CCOC(=O)c1c(C)c2c(n1C)CSc1cc(S(=O)(=O)c3ccccc3)c(=O)[nH]c1-2 | 25.2 | > 100 | 27.9 | 77.7 | 35.1 | > 100 | 25.7 | > 100 | 17.1 | 43.6 | 36.7 | > 100 | 14.8 | > 100 | 27.6 | > 100 | 34.4 | > 100 |  | 
CN(C)CC1(C)CC/C(=C\c2ccc3c(c2)OCO3)C1=O (stereo unspecified) |  |  |  | > 100 |  | > 100 |  | > 100 |  | > 100 |  | > 100 |  | 81.4 |  | > 100 |  | > 100 | > 100 | 
COC(=O)C1CCc2c(OC)ccc(OC)c2C1=O (stereo unspecified) |  | > 100 |  | > 100 |  | > 100 |  | > 100 |  | > 100 |  | > 100 |  | > 100 |  |  |  | > 100 | > 100 | 
CC1=CC(C)C(O)C(C)/C=C/C(O)C/C=C(/C)C(=O)CC(O)C(C)\C=C/C=C/C=C\C(=O)NC2=C(O)c3cc(C)c(O)c(c3C(=O)C2=O)C1=O (stereo unspecified) |  | > 100 |  | > 100 |  |  |  | > 100 |  | > 100 |  | > 100 |  | > 100 |  | > 100 |  | > 100 |  | 
C=C(C)C1CC[C@]2(C(=O)O)CCC3(C)[C@H](CCC4[C@@]5(C)CC[C@H](OC6OC(CO)C(O)C6OC6OC(C)C(O)C(O)C6O)[C@@](C)(CO)C5CC[C@]43C)C12 (stereo partly specified) |  | > 100 |  | > 100 |  |  |  | > 100 |  | > 100 |  | > 100 |  |  |  | > 100 |  | > 100 |  | 
COCCOC(C)C(/C=N/NC(N)=S)=N/NC(N)=S (stereo unspecified) |  | > 58.9 | 0.0643 | > 100 |  |  | > 100 | > 100 | 0.0252 |  | > 100 | > 100 | 0.0725 | > 100 | > 100 | > 100 | > 100 | > 100 | > 100 | > 100
Cc1cccc(NC(=O)CC2C(=O)Nc3ccccc3S2(=O)=O)c1C (stereo unspecified) |  | > 100 |  | > 100 |  | 45.1 |  | 82.4 |  | 61.2 |  | 44.4 |  |  |  | > 100 |  | 79.5 | > 100 | 
Clc1ccc2c(NCCCN3CCN(c4nc(-n5ccnc5)nc5ccccc45)CC3)ccnc2c1 | 2.17 | 5.18 |  |  | 1.91 | 3.56 |  |  | 1.55 | 3.15 |  |  | 2.21 | 5.19 | > 100 | > 100 | 1.72 | 3.39 | > 26.8 | 2.55
